Results from patent publication US20230203041A1, “ANTAGONISTS OF THE ADENOSINE A2A RECEPTOR” (AdoRx Therapeutics Limited, priority 2020, published 2023).

Tests used:
[1] = target: T1, human Adenosine A3 receptor (Homo sapiens, UniProt P0DMS8); experiment: Adenosine receptor TR-FRET binding assay (CA200645 displacement), A3
T1 sequence (P0DMS8 1-318): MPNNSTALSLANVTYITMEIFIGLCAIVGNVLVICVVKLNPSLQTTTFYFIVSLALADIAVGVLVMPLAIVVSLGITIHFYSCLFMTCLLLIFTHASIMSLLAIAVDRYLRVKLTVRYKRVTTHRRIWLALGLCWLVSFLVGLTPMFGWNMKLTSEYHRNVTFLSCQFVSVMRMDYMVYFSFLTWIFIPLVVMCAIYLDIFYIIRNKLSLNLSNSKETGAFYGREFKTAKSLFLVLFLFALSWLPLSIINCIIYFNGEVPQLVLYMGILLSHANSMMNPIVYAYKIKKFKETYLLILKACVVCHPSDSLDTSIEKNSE

[2] = target: T2, human Adenosine A2b receptor (Homo sapiens, UniProt P29275); experiment: Adenosine receptor TR-FRET binding assay (CA200645 displacement), A2b; conditions: 30 nM CA200645, CHO cell membranes, 2 hours at room temperature
T2 construct: expressed in transfected cells; host or cells: CHO cell membranes
T2 sequence (P29275 1-332): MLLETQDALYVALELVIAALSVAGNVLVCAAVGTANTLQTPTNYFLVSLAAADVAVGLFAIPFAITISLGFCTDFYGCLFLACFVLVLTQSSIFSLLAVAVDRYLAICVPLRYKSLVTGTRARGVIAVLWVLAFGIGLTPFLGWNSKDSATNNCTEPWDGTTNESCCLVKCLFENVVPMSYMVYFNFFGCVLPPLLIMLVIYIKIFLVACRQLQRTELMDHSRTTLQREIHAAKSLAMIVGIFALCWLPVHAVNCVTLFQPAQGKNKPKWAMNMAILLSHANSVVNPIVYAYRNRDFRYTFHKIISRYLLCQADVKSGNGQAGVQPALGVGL

[3] = target: T3, human Adenosine A2a receptor (Homo sapiens, UniProt P29274); experiment: Adenosine receptor TR-FRET binding assay (CA200645 displacement), A2a; conditions: 100 nM CA200645, CHO cell membranes, 2 hours at room temperature
T3 construct: expressed in transfected cells; host or cells: CHO cell membranes
T3 sequence (P29274 whole entry): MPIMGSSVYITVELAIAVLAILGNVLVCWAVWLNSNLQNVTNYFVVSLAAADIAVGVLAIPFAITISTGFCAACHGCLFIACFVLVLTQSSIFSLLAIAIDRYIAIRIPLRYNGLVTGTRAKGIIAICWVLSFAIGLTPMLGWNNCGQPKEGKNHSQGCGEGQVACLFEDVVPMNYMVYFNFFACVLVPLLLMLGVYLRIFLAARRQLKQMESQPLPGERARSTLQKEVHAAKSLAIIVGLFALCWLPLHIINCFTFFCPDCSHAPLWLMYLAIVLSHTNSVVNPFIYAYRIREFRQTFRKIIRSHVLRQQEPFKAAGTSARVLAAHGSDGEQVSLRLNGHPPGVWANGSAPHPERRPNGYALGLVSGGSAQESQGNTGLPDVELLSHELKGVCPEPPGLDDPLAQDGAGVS

| Ki [1] [nM] | Ki [2] [nM] | Ki [3] [nM] | Structure (SMILES) |
| --- | --- | --- | --- |
| > 1000 | 91 | 50.8 | Cc1cc(-c2c(-c3cccc(C#N)c3)nn3ccc(O[C@H]4CCCNC4)nc23)cc(Cl)n1 [Example 24.3, 3-[3-(2-Chloro-6-methyl-4-pyridyl)-5-[[(3S)-3-piperidyl]oxy]pyrazolo[1,5-a]pyrimidin-2-yl]benzonitrile] |
| > 1000 | 10000 | 141 | Fc1cccc(-c2nn3ccc(NCc4ccccc4)nc3c2Br)c1 [Example 69, N-Benzyl-3-bromo-2-(3-fluorophenyl)pyrazolo[1,5-a]pyrimidin-5-amine] |
| > 1000 | 426 | 94 | Cc1cc(-c2c(-c3cccc(C#N)c3)nn3ccc(C(=O)O)nc23)cc(Cl)n1 [Example 9, 3-(2-Chloro-6-methyl-4-pyridyl)-2-(3-cyanophenyl)pyrazolo[1,5-a]pyrimidine-5-carboxylic acid] |
| > 1000 | 1780 | 175 | Fc1ccccc1-c1cc2nc(NCc3ccccc3)ccn2n1 [Example 36, N-Benzyl-2-(2-fluorophenyl)pyrazolo[1,5-a]pyrimidin-5-amine] |
| > 1000 | 113 | 12 | Cc1cc(-c2c(-c3cccc(C#N)c3)nn3ccc(NC(C)(C)C)nc23)cc(Cl)n1 [Example 3.2] |
| 25 | 2160 | 284 | Fc1cccc(-c2cc3nc(NCCc4ccccc4)ccn3n2)c1 [Example 66.2, 2-(3-Fluorophenyl)-N-(2-phenylethyl)pyrazolo[1,5-a]pyrimidin-5-amine] |
| > 1000 | 3860 | 197 | Nc1ccn2nc(-c3cccc(F)c3)c(Br)c2n1 [Example 71, 3-Bromo-2-(3-fluorophenyl)pyrazolo[1,5-a]pyrimidin-5-amine] |
| > 1000 | 240 | 145 | CCn1nccc1-c1c(-c2cccc(C#N)c2)nn2ccc(C(=O)NCC(C)(C)O)nc12 [Example 12, 2-(3-Cyanophenyl)-3-(2-ethylpyrazol-3-yl)-N-(2-hydroxy-2-methyl-propyl)pyrazolo[1,5-a]pyrimidine-5-carboxamide] |
| > 1000 | 25 | 12.5 | Cc1cc(-c2c(-c3cccc(C#N)c3)nn3ccc(O[C@H]4CCNC4)nc23)cc(Cl)n1 [Example 24.2, 3-[3-(2-Chloro-6-methyl-4-pyridyl)-5-[(3S)-pyrrolidin-3-yl]oxy-pyrazolo[1,5-a]pyrimidin-2-yl]benzonitrile] |
| > 1000 | 7470 | 120 | Fc1cccc(-c2nn3ccc(NCc4ccccc4)nc3c2Cl)c1 [Example 67, N-Benzyl-3-chloro-2-(3-fluorophenyl)pyrazolo[1,5-a]pyrimidin-5-amine] |
| > 1000 | 1200 | 72 | Cc1cccnc1CNc1ccn2nc(-c3cccc(F)c3)cc2n1 [Example 66.1, 2-(3-Fluorophenyl)-N-[(3-methyl-2-pyridyl)methyl]pyrazolo[1,5-a]pyrimidin-5-amine] |
| > 1000 | 2310 |  | CCn1ncc(C)c1-c1c(-c2cccc(C#N)c2)nn2ccc(C(=O)NCC(C)(C)O)nc12 [Example 12.3, 2-(3-Cyanophenyl)-3-(2-ethyl-4-methyl-pyrazol-3-yl)-N-(2-hydroxy-2-methyl-propyl)pyrazolo[1,5-a]pyrimidine-5-carboxamide] |
| > 1000 | 12 | 14.9 | Cc1cc(-c2c(-c3cccc(C#N)c3)nn3ccc(C(=O)N[C@@H]4CCCNC4)nc23)cc(Cl)n1 [Example 7.7, 3-(2-Chloro-6-methyl-4-pyridyl)-2-(3-cyanophenyl)-N-[(3R)-3-piperidyl]pyrazolo[1,5-a]pyrimidine-5-carboxamide] |
| > 1000 | 29 | 10.1 | Cc1cc(-c2c(-c3cccc(C#N)c3)nn3ccc(N[C@@H](C)CO)nc23)cc(Cl)n1 [Example 23.3] |
| 2000 | 212 | 22.5 | Cc1cc(-c2c(-c3cccc(C#N)c3)nn3ccc(N4CCOCC4)nc23)cc(Cl)n1 [Example 2.33] |
